pIC50: −log10 of the molar value. Values joined by “and” are separate entries in the source; they are usually repeats but may differ in a detail not shown here. Equal values may be shown once.
Experiments:
HepG2 cells = assay: HepG2 cell viability under serum-free conditions (MTS); assay type: cell-based; settings: Homo sapiens
Method: Cancer cells such as HepG2 cells depend on SREBP activation and de novo lipogenesis to survive, particularly in low serum or serum-free conditions. Using this model, compounds were screened over 24 hours for the ability to block cleavage of SREBP to its active form and over 72 hours for an effect on cell viability under serum-free conditions.
For viability measurements, HepG2 cells were seeded at 5,000 cells per well in 96-well plates in DMEM supplemented with 10% FBS. After 1 day in culture, cells were treated with compounds (20 μM & 5 μM) for 3 days in DMEM without FBS. Viability was measured by MTS […]. […]

Coll1a1 = assay: Short-term Paigen-diet NASH mouse model: hepatic Coll1a1 (collagen 1α1) gene expression (RT-qPCR); assay type: in vivo; parameters: key to Fibrosis gene expression Coll1a1: Dct: Ct of gene minus Ct of 18S reference; key to Fibrosis gene expression Coll1a1: 2DDct: expression relative to vehicle group, 2^-ΔΔCt method, 18S-normalized; settings: 21 days
Method: To investigate whether Compound #37 prevents the development of pathology associated with NASH and steatosis in an acute exploratory disease model, a study was conducted using a diet-induced acute liver steatosis model in mice. As described below, in this study, C57BL/6J mice were initiated on the Paigen diet and simultaneously treated with Compound #37 (5, 20, and 40 mg/kg/day) or vehicle control (20% HPβCD 10 mL/kg/day) by oral gavage for 21 days.
After acclimation, 8-week old male C57Bl/6J mice (Charles River) weighing about 25 g were randomized in 4 groups according their body weight and treated once daily around noon by oral gavage with vehicle, or Compound #37 at various for 21 days as follows: Group 1: vehicle-20% (2-hydroxypropyl)-β-cyclodextrin (HP-β-CD) (n=10); Group 2: Compound #37, 5 mg/kg (n=10) Group 3: Compound #37, 20 mg/kg (n=10) Group 4: Compound #37, 40 mg/kg (n=10). During the treatment period, body weight and food intake (measured over 24h) were measured 3 times per week and once a week, respectively. During the acclimation, all mice were fed a standard diet (Special Diets Services RM1 (E), product no. 801492) and tap water ad libitum. After the acclimation period, mice were fed until the end of the experiment with a 60% high fat Paigen diet (60 kcal % fat, 1.25% cholesterol, and 0.5% cholate; D11061901, Research Diet) and tap water ad libitum.
Gene expression analysis. Hepatic expression levels of genes involved in lipid metabolism (FAS, SREBP1, ACC1, SCD1), cholesterol metabolism (HMG-CoAR, LDLR), SREBP proteolysis (SCAP, INSIG1), ER stress (PERK), oxidative stress (NRF2), inflammation (MCP-1), and fibrosis (collagen 1α1) were quantified by RTqPCR. Expression level was normalized to 18S gene expression and relative expression to vehicle group was calculated with the […] method.

[1] = Short-term Paigen-diet NASH mouse model: Compound #37 plasma concentration 1 hour after final dose; assay type: in vivo; settings: for concentration at 1 h: male, C57Bl/6J, mouse, plasma, oral
Description: After 21 days of treatment, mice were 4-hour fasted (9 am to 1 pm). One hour after the last dosing (noon), blood was collected by retro-orbital bleeding (maximal volume on EDTA) under isoflurane anesthesia to measure plasma triglycerides, total cholesterol, non-esterified fatty acid, ALT and AST. Mice were then sacrificed by cervical dislocation, and livers were harvested and weighed. Liver samples from the same lobe were dissected, frozen, and analyzed as described below.
The Paigen diet in the C57Bl/6J mouse strain typically results in an initial acute weight loss that recovers over time (Hebbard & George, 2011; vendor historical unpublished data). […] Dosing of this group was stopped on day 4 and the surviving mice were sacrificed on day 9, 1 hour after a final dose to analyze drug exposure. […] No mice died in the Compound #37 5 mg/kg/day or vehicle control groups (10 mice each group).
The death of animals in the Compound #37 40 mg/kg/day and 20 mg/kg/day groups appears to be related to synergistic weight loss due to a combination of the Paigen diet and the inappetence effects of Compound #37 observed in repeat-dose toxicity studies in rats and dogs. […] Compound #37 mean plasma concentration 1 hour after final dose administration on day 21 was 20.4 μM (±4.33 μM) and 112 μM (±26.0 μM) for the 5 mg/kg and 20 mg/kg groups, respectively. The Compound #37 mean plasma concentration 1 hour after final dose administration for the 4 animals on day 9 in the 40 mg/kg group was 136 μM (±37.1 μM). These exposures at 1 hour after dosing are approximately 2-fold higher than those observed in healthy mice and may be related to altered Compound #37 metabolism in this acute liver injury model.

[2] = ob/ob mice: tolerability, weight gain and food intake; assay type: in vivo; settings: over 8 weeks, all treatment groups
Method: Groups of mice were either untreated (group 1) or treated for 8 weeks with vehicle (group 2), or with Compound #37 at 5 mg/kg (group 3), 10 mg/kg (group 4), or 20 mg/kg (group 5). Treatment was daily by oral gavage in vehicle (20% HPβCD). Values are presented as mean±standard error of the mean (sem). A t test was performed to compare the untreated group and the vehicle group. Then Compound #37-treated groups were compared to the vehicle-treated group with a 1-way ANOVA+Dunnett's post-test. […] For each test, a p<0.05 was considered significant. Of note, animal #39, group 1 was excluded from the statistical analysis, due to low values for all parameters measured. Some other values were considered as out-liners and excluded from the statistical analysis when the value was far below the mean minus 2 SD. Excluded values are marked with an asterisk in Tables 21-23.
These plasma lipid results are consistent with SCAP/SREBP pathway inhibition seen in tissue-specific SCAP knockout mice (Horton et al, 2002) and with inhibition of SREBP in vivo (Moon et al, 2012).

Which results are given for `CC(C)Cc1cc(-c2nc(-c3ccc(NS(=O)(=O)C(F)(F)F)cc3Cl)cs2)ccn1` [Compound 37, N-(3-chloro-4-(2-(2-isobutylpyridin-4-yl)thiazol-4-yl)phenyl)-1,1,1-trifluoromethanesulfonamide]?
cytotoxicity at 5 µM (HepG2 cells; HepG2, 72 h, 5 μM, 3 days, DMEM without FBS, read-out: Average Viability (% Inhibition, n = 3)): 94%; cytotoxicity at 20 µM (HepG2 cells; HepG2, 72 h, 20 μM, 3 days, DMEM without FBS, read-out: Average Viability (% Inhibition, n = 3)): 95%; pIC50 (HepG2 cells; HepG2, serum-free, read-out: IC50 for decreased viability of HepG2 cells): 5.68; Fibrosis gene expression Coll1a1: 2DDct (Coll1a1; 5 mg/kg, group mean, n 10): 0.88; Fibrosis gene expression Coll1a1: Coll1a1 (Coll1a1; 5 mg/kg, group mean, n 10): 27.2; Fibrosis gene expression Coll1a1: DDct (Coll1a1; 5 mg/kg, group mean, n 10): 0.84; Fibrosis gene expression Coll1a1: Dct (Coll1a1; 5 mg/kg, group mean, n 10): 15; Fibrosis gene expression Coll1a1: 2DDct (Coll1a1; 5 mg/kg, individual animals): 0.86 and 0.27 and 0.96 and 0.69 and 0.15 and 0.05 and 1.75 and 2.26 and 1.2 and 0.57; Fibrosis gene expression Coll1a1: Coll1a1 (Coll1a1; 5 mg/kg, individual animals): 27.81 and 29.15 and 25.8 and 28.03 and 28.92 and 31.82 and 24.93 and 24.75 and 25.01 and 26.07; Fibrosis gene expression Coll1a1: DDct (Coll1a1; 5 mg/kg, individual animals): 0.21 and 1.9 and 0.05 and 0.54 and 2.75 and 4.33 and −0.81 and −1.18 and −0.27 and 0.81; Fibrosis gene expression Coll1a1: Dct (Coll1a1; 5 mg/kg, individual animals): 14.4 and 16.04 and 14.19 and 14.68 and 16.89 and 18.47 and 13.33 and 12.96 and 13.87 and 14.95; Fibrosis gene expression Coll1a1: 2DDct (Coll1a1; 20 mg/kg, group mean, n 5): 0.68; Fibrosis gene expression Coll1a1: Coll1a1 (Coll1a1; 20 mg/kg, group mean, n 6): 26.6; Fibrosis gene expression Coll1a1: DDct (Coll1a1; 20 mg/kg, group mean, n 6): 0.24; Fibrosis gene expression Coll1a1: Dct (Coll1a1; 20 mg/kg, group mean, n 6): 14.4; Fibrosis gene expression Coll1a1: 2DDct (Coll1a1; 20 mg/kg, individual animals): 0.28 and 0.85 and 0.66 and 1 and 0.61 and 3.91*; Fibrosis gene expression Coll1a1: Coll1a1 (Coll1a1; 20 mg/kg, individual animals): 28.9 and 26.66 and 26.93 and 27.17 and 26.34 and 23.43; Fibrosis gene expression Coll1a1: DDct (Coll1a1; 20 mg/kg, individual animals): 1.85 and 0.23 and 0.59 and 0 and 0.71 and −1.97; Fibrosis gene expression Coll1a1: Dct (Coll1a1; 20 mg/kg, individual animals): 15.99 and 14.37 and 14.73 and 14.14 and 14.85 and 12.17; exposure at 1 hour after dosing relative to healthy mice ([1]; acute liver injury model vs healthy mice): approximately 2 fold; concentration at 1 h ([1]; 5 mg/kg, day 21): 20.4 µM; concentration at 1 h ([1]; 20 mg/kg, day 21): 112 µM; concentration at 1 h ([1]; 40 mg/kg, day 9, 4 animals): 136 µM; tolerability [2]: generally well tolerated
